Experimental data from patent US10166235B2, “Kinetin/zeatin topical formulation” (Dow Pharmaceutical Sciences, Inc., priority 2013, dated 2019).

Assays:
[1] = Solubility of kinetin or zeatin when both kinetin and zeatin are dissolved, determined by HPLC
Description: (§1) Solubilization of kinetin and zeatin was determined by HPLC.

[2] = Comparison with prior art formulations: dissolved kinetin or zeatin in GDM-12, Transcutol, isostearic acid and mixtures by HPLC; conditions: for Synergistic Increase in Solubility %: zeatin
Description: (§2) Kinetin was combined and mixed in separate beakers containing GDM-12, Transcutol, and Isostearic Acid, and the concentration of dissolved kinetin in each beaker was determined by HPLC. Kinetin was then combined and mixed in separate beakers containing GDM-12 and Transcutol (1:1) and containing GDM-12 and Isostearic acid.
as §2, with “Zeatin” for “Kinetin”, “zeatin” for “kinetin”

[3] = Solubility of kinetin or zeatin alone in GDM-12, GDO-12, isostearic acid and 50:50 mixtures, determined by HPLC; conditions: for calculated solubility: based on independent solubility in each solvent
Description: as §1

[4] = distilled water / water; cited from earlier work
[5] = solvent GDM-12 + Isostearic Acid
[6] = solvent GDM-12 + Transcutol (1:1)
[7] = 50% GDM-12 and 50% isostearic acid
[8] = 50% GDO-12 and 50% isostearic acid

SMILES: C/C(=C\CNc1ncnc2nc[nH]c12)CO [Zeatin, (E)-2-methyl-4-(7H-purin-6-ylamino)but-2-en-1-ol]
- calculated solubility ([1]; both kinetin and zeatin combined, 50% GDM-12 and 50% isostearic acid): 0.19 wt %
- increase over the calculated solubility ([1]; both kinetin and zeatin dissolved, 50% GDM-12 and 50% isostearic acid): 121%
- solubility ([1]; both kinetin and zeatin dissolved, in 50% GDM-12 and 50% isostearic acid): 0.42 % w/w
- solubility ([1]; both kinetin and zeatin dissolved, in 100% GDM-12): 0.10 % w/w
- solubility ([1]; both kinetin and zeatin dissolved, in 100% isostearic acid): 0.28 % w/w
- Zeatin % w/w Experimental ([2]; solvent GDM-12): .119 % w/w
- Zeatin % w/w Calculated [2, 5]: .229 % w/w
- Zeatin % w/w Experimental [2, 5]: .440 % w/w
- Zeatin % w/w Calculated [2, 6]: .345 % w/w
- Zeatin % w/w Experimental [2, 6]: .365 % w/w
- Zeatin % w/w Experimental ([2]; solvent Isostearic Acid): .299 % w/w
- Zeatin % w/w Experimental ([2]; solvent Transcutol): .570 % w/w
- Synergistic Increase in Solubility % [2, 5]: 92%
- Synergistic Increase in Solubility % ([2]; solvent GDM-12 + Isostearic Acid, listed as zeatin): 92%
- Synergistic Increase in Solubility % [2, 6]: 0%
- Synergistic Increase in Solubility % ([2]; solvent GDM-12 + Transcutol (1:1), listed as zeatin): does not provide a synergistic increase
- increase over the calculated solubility [3, 7]: 109%
- calculated solubility [3, 7]: 0.21 wt %
- increase over the calculated solubility [3, 8]: 100%
- calculated solubility [3, 8]: 0.20 wt %
- solubility ([3]; in 50% GDM-12 and 50% isostearic acid): 0.44 % w/w
- solubility ([3]; in 50% GDO-12 and 50% isostearic acid): 0.40 % w/w
- solubility ([3]; in 100% GDM-12 (PEG-12 Glycerol dimyristate)): 0.12 % w/w
- solubility ([3]; in 100% GDO-12 (PEG-12 Glycerol dioleate)): 0.10 % w/w
- solubility ([3]; in 100% isostearic acid): 0.30 % w/w
- solubility in water [4]: practically insoluble

SMILES: c1coc(CNc2ncnc3nc[nH]c23)c1 [Kinetin, N^6-furfuryladenine]
- Kinetin % w/w Experimental ([2]; solvent GDM-12): .164 % w/w
- Kinetin % w/w Calculated [2, 5]: .229 % w/w
- Kinetin % w/w Experimental [2, 5]: .422 % w/w
- Kinetin % w/w Calculated [2, 6]: .281 % w/w
- Kinetin % w/w Experimental [2, 6]: .287 % w/w
- Kinetin % w/w Experimental ([2]; solvent Isostearic Acid): .299 % w/w
- Kinetin % w/w Experimental ([2]; solvent Transcutol): .397 % w/w
